Values after ≈ are worked out from the molar mass of the structure shown. Where two headings read alike, the source gives them in different places.
How the values were obtained:
[1] = tested on: Staphylococcus aureus ATCC 29213; assay: In vitro antibacterial activity (CLSI M07-A10 dilution), MIC; type: cell-based; settings: ATCC29213
[2] = tested on: Staphylococcus aureus ATCC BAA-1556 (MERSA resistant); assay: as above; type: cell-based; settings: ATCCBAA1556
[3] = tested on: Staphylococcus epidermidis; assay: as above; type: cell-based
[4] = tested on: Bacillus subtilis MTCC 441; assay: as above; type: cell-based; settings: MTCC441
[5] = tested on: Enterococcus faecium ATCC 35667; assay: as above; type: cell-based; settings: ATCC35667
[6] = tested on: Enterococcus faecium ATCC 51559 (VRE resistant); assay: as above; type: cell-based
[7] = tested on: Klebsiella pneumonia MTCC 618; assay: as above; type: cell-based; settings: Klebsiella pneumoniae, MTCC618
[8] = tested on: Escherichia coli MTCC 443; assay: as above; type: cell-based; settings: MTCC443
[9] = tested on: Pseudomonas aeruginosa MTCC 741; assay: as above; type: cell-based; settings: MTCC741
[10] = tested on: Mycobacterium tuberculosis H37Rv strain; assay: Anti-tubercular alamar blue microplate MIC assay; type: cell-based; settings: 168 h, M. tuberculosis H37Rv, 7 days at 37° C., read-out: anti-mycobacterial activity (MIC)
DNA gyrase from E. coli = target: T1, DNA gyrase from E. coli (Escherichia coli, UniProt P0AES4+P0AES6); assay: Inhibitory activity on E. coli DNA gyrase (Inspiralis supercoiling assay); type: biochemical
T1 construct: purchased Inspiralis
Description: Inhibitory potencies were investigated utilizing the Inspiralis assay on streptavidin-coated 96-well microtiter plates. First, the plates were rehydrated with buffer (20 mM Tris-HCl with pH 7.6, 0.01% w/v BSA, 0.05% v/v Tween 20, 137 mM NaCl) and the biotinylated oligonucleotide was then immobilized. After washing off the unbound oligonucleotide, the enzyme test was performed. […] Reaction solutions were incubated at 37° C. for 30 min. After that, the TF buffer (50 mM NaOAc with pH 5.0, 50 mM NaCl and 50 mM MgCl2) was added to terminate the enzymatic reaction. After additional incubation for 30 min at rt, during which biotinoligonucleotide-plasmid triplex was formed, the unbound plasmid was washed off using TF buffer and SybrGOLD in T10 buffer (10 mM Tris HCl with pH 8.0 and 1 mM EDTA) was added. The fluorescence was measured with a microplate reader (BioTek Synergy H4, excitation: 485 nm, emission: 535 nm). […] GraphPad Prism software was used to calculate the IC50 values. The result is given as the average value of three independent measurements.

T1 sequence (P0AES4 whole entry, one chain of several): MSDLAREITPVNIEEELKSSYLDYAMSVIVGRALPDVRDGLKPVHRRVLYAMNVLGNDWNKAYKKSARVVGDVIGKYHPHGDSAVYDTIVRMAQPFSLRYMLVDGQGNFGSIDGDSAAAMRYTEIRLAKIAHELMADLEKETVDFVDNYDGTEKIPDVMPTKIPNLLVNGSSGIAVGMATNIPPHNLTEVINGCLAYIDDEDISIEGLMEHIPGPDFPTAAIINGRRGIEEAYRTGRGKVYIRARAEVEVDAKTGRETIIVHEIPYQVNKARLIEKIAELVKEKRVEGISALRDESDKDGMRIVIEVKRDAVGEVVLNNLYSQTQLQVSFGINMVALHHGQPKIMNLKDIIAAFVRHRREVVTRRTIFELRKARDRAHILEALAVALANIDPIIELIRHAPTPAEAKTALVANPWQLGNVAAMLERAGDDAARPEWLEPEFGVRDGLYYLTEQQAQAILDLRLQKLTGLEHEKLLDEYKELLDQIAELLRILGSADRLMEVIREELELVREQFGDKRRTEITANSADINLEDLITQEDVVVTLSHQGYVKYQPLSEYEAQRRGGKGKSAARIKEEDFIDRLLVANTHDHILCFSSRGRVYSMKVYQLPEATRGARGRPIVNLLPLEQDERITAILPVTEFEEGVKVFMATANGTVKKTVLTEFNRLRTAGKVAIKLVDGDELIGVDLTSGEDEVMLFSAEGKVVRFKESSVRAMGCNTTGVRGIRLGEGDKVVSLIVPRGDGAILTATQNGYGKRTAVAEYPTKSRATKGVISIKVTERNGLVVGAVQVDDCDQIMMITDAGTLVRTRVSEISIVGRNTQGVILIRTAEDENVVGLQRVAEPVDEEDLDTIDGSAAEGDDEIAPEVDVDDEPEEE

## CCC(=O)Nc1ccc2cc(-c3cc(C(=O)O)ccc3CN(C)C3CCCCC3)c(=O)oc2c1 [Compound 12, 4-((cyclohexyl(methyl)amino)methyl)-3-(2-oxo-7-propionamido-2H-chromen-3-yl)benzoic acid]
[1]
  MIC: 2 µg/mL (≈ 4.32 µM)
[2]
  MIC: 4 µg/mL (≈ 8.65 µM)
[3]
  MIC: 1 µg/mL (≈ 2.16 µM)
[4]
  MIC: 0.75 µg/mL (≈ 1.62 µM)
[5]
  MIC: 0.75 µg/mL (≈ 1.62 µM)
[6]
  MIC: 1 µg/mL (≈ 2.16 µM)
[7]; Klebsiella pneumonia MTCC 618, read-out: MIC
  MIC: 1 µg/mL (≈ 2.16 µM)
[8]
  MIC: 4 µg/mL (≈ 8.65 µM)
[9]
  MIC: 1 µg/mL (≈ 2.16 µM)
[10]
  MIC: 8 µg/mL (≈ 17.3 µM)
DNA gyrase from E. coli
  IC50: 78 nM

## CN[C@H](CC(C)C)C(=O)N[C@H]1C(=O)N[C@@H](CC(N)=O)C(=O)N[C@H]2C(=O)N[C@H]3C(=O)N[C@H](C(=O)N[C@H](C(=O)O)c4cc(O)cc(O)c4-c4cc3ccc4O)[C@H](O)c3ccc(c(Cl)c3)Oc3cc2cc(c3O[C@@H]2O[C@H](CO)[C@@H](O)[C@H](O)[C@H]2O[C@H]2C[C@](C)(N)[C@H](O)[C@H](C)O2)Oc2ccc(cc2Cl)[C@H]1O [Vancomycin, reference compound]
[7]
  MIC: > 128 µg/mL

Reference: patent US11897859B1, “Coumarin compounds as antibacterial agents” (KING FAISAL UNIVERSITY, priority 2023, dated 2024)
